According to patent US20170145000A1, “CANAGLIFLOZIN MONOHYDRATE AND ITS CRYSTALLINE FORMS, PREPARATION METHODS AND USES THEREOF” (Hangzhou Pushai Pharmaceutical Technology Co., Ltd., priority 2014, published 2017):

Tests used:
Type in all cases: physicochemical
[1] = repetition of prior art forms and test of their properties (stability in water, phase stability); conditions: prior art processes repeated by the inventors; competitive stability test in water
Excerpt: The above properties may lead to problems in their pharmaceutical formulations, including variations in active substance content, poor reproducibility, impurities increasing during storage, efficacy decreasing, and so on. Moreover, the known canagliflozin is amorphous.

[2] = competitive stability test in water at room temperature with Monohydrate Form HI (XRPD); conditions: equal 250 mg samples of Form HI, known canagliflozin, Form A and Form hH1 mixed with 5 mL water, stirred 7 days
Method: The competitive stability test of canagliflozin Monohydrate Form HI of the present invention, the known canagliflozin, canagliflozin hemihydrate Form hH1 and canagliflozin Form A was performed in water at room temperature.
Conditions of the competitive stability test were as follows: take equal quantity (250 mg) samples of canagliflozin Monohydrate Form HI of the present invention, canagliflozin prepared in the preparation example 1, canagliflozin Form A prepared in the preparation example 2 and canagliflozin hemihydrate Form hH1 prepared in the preparation example 3 respectively, mix the samples with 5 mL of water to form a suspension. The suspension was stirred for 7 days at room temperature and then XRPD characterization analysis was performed.

[3] = competitive stability test in water at room temperature with Monohydrate Form HII (XRPD); conditions: equal 250 mg samples of Form HII, known canagliflozin, Form A and Form hH1 mixed with 3 mL water, stirred 7 days
Method: The competitive stability test among canagliflozin Monohydrate Form HII of the present invention, the known Canagliflozin, canagliflozin hemihydrate Form hH1 and canagliflozin Form A was performed in water at room temperature.
Conditions of the competitive stability test were as follows: take equal quantity (250 mg) samples of canagliflozin Monohydrate Form HII of the present invention, canagliflozin prepared in the preparation example 1 in the present invention, canagliflozin Form A prepared in the preparation example 2 in the present invention and canagliflozin hemihydrate Form hH1 prepared in the preparation 3 in the present invention, respectively, and mix the samples with 3 mL of water to form a suspension. The suspension was stirred for 7 days at room temperature and then XRPD characterization analysis was performed.

[4] = storage in desiccator at room temperature and controlled relative humidity; conditions: room temperature

Row | Structure (SMILES) | stability in water / phase stability of repeated prior art forms [1] | crystalline form after storage ([4]; desiccator, 10% to 90% RH, 4 months) | crystalline form after storage ([4]; desiccators, relative humidities from 57% to 75%, continued storage for 4 months) | crystalline form after competitive stability test in water [2] | crystalline form after competitive stability test in water [3] | crystalline form after storage ([4]; desiccators, relative humidities from 57% to 75%, 1 day)
1 | Cc1ccc([C@@H]2O[C@H](CO)[C@@H](O)[C@H](O)[C@H]2O)cc1Cc1ccc(-c2ccc(F)cc2)s1 [Cangaliflozin Form B] | poor phase stability | – | – | – | – | –
2 | Cc1ccc([C@@H]2O[C@H](CO)[C@@H](O)[C@H](O)[C@H]2O)cc1Cc1ccc(-c2ccc(F)cc2)s1 [canagliflozin Form A] | not stable in water | – | – | transformed to canagliflozin Monohydrate Form HI | transformed to canagliflozin Monohydrate Form HII | –
3 | Cc1ccc([C@@H]2O[C@H](CO)[C@@H](O)[C@H](O)[C@H]2O)cc1Cc1ccc(-c2ccc(F)cc2)s1 [canagliflozin Monohydrate Form HI, canagliflozin monohydrate Form HI] | – | remained unchanged | – | maintained its original crystalline form | – | –
4 | Cc1ccc([C@@H]2O[C@H](CO)[C@@H](O)[C@H](O)[C@H]2O)cc1Cc1ccc(-c2ccc(F)cc2)s1 [canagliflozin Monohydrate Form HII] | – | – | remained unchanged | – | maintained its original crystalline form | –

Further lines, with some results ahead:

Row | stability in water / phase stability of repeated prior art forms [1] | crystalline form after storage ([4]; desiccator, 10% to 90% RH, 4 months) | crystalline form after storage ([4]; desiccators, relative humidities from 57% to 75%, continued storage for 4 months) | Structure (SMILES) | crystalline form after competitive stability test in water [2] | crystalline form after competitive stability test in water [3] | crystalline form after storage ([4]; desiccators, relative humidities from 57% to 75%, 1 day)
5 | poor phase stability | – | – | Cc1ccc([C@@H]2O[C@H](CO)[C@@H](O)[C@H](O)[C@H]2O)cc1Cc1ccc(-c2ccc(F)cc2)s1.O [canagliflozin hemihydrate Form hH1] | transformed to canagliflozin Monohydrate Form HI | transformed to canagliflozin Monohydrate Form HII | –
6 | not stable in water | – | – | Cc1ccc([C@@H]2O[C@H](CO)[C@@H](O)[C@H](O)[C@H]2O)cc1Cc1ccc(-c2ccc(F)cc2)s1 [known canagliflozin, (1S)-1,5-anhydro-1-[3-[[5-(4-fluorophenyl)-2-thienyl]methyl]-4-methylphenyl]-D-glucitol] | transformed to canagliflozin Monohydrate Form HI | transformed to canagliflozin Monohydrate Form HII | transformed to canagliflozin Monohydrate Form HII
